Source: patent US6348309B1, “Process for inactivating viruses in blood and blood products” (priority 1989, dated 2002)
Entries after “also recorded” stand apart in the source; their conditions may differ.

What was measured:
adenovirus = assay: Photodynamic treatment of adenovirus with pre-incubation in the dark, titrated on FL cells (Example 7); format: cell-based; settings: TB instead of MB, same conditions
[1] = system: Eastern equine encephalomyelitis (EEE) virus; settings: cited from earlier work
[2] = 1 to 2 mg/kg of body weight; cited from earlier work

Cc1cc2nc3ccc(N(C)C)cc3[s+]c2cc1N.[Cl-] [TB, toluidine blue]
effect of photodynamic treatment on virus titer (adenovirus): not reduced | inactivation of EEE virus in plasma [1]: effectively inactivated; also recorded: failed to inactivate the virus completely | side effects in therapeutic use [2]: without any significant side effects
